Laboratory results from patent US10266515B2, “Therapeutic inhibitory compounds” (LifeSci Pharmaceuticals, Inc., priority 2013, dated 2019).

Biological target: human plasma kallikrein (Homo sapiens (Human), UniProt P03952)
Test: In vitro enzyme inhibition of human plasma kallikrein (PFR-AMC cleavage)
Assay type: biochemical
Details: Pro-Phe-Arg-AMC substrate, 37° C., read-out: hPK IC50
Procedure: The ability of the compounds disclosed herein to inhibit human plasma kallikrein activity was quantified according to the procedures below.
A 10 mM solution of the test compound was made in DMSO. […] A control tube containing only DMSO is included. 16 μL of each compound test solution was combined with 384 μL of assay buffer (50 mM Tris-HCl pH 7.5, 150 mM NaCl, 0.01% Triton X-100) to yield a “4× test compound buffer stock”.
These solutions are hereby referred to as 4×hPK and 2×PFR-AMC, respectively.
50 μL was removed from this mixture and placed into duplicate wells on a Microfluor 1Black U-bottom microtiter plate (Thermo Scientific). This plate was incubated for 5 minutes at 37° C. To each well, 50 μL of pre-warmed 2×PFR-AMC was added to start the enzymatic reaction. Cleavage of PFR-AMC was monitored in a Biotek Synergy H4 reader set at 37° C. Readings are taken every 43 seconds for 1 hour. […] The IC50 is calculated using the Gen5 (Biotek Instruments).
The ability of the compounds in Table 3 to inhibit human plasma kallikrein activity was determined.

human plasma kallikrein, sequence (P03952 391-638 limits assumed): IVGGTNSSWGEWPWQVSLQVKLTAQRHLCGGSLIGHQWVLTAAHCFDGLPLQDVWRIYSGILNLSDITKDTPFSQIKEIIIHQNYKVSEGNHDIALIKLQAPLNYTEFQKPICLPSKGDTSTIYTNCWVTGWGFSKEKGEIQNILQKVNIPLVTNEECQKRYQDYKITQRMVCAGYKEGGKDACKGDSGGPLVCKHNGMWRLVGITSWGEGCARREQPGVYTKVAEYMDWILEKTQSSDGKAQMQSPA
human plasma kallikrein, sequence (P03952 20-390 partner limits assumed): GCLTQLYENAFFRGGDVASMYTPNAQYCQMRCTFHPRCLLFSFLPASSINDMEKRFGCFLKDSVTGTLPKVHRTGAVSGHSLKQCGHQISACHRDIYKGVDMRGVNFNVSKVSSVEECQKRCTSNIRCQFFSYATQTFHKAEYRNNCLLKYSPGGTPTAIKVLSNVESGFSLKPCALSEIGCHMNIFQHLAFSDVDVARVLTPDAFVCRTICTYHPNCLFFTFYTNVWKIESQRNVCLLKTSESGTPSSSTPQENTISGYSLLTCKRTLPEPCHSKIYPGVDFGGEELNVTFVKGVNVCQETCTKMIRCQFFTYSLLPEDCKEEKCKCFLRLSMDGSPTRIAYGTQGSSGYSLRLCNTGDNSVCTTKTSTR

Q: Which IC50 does the source give for “N-((3-chloro-6-fluoro-1H-indol-5-yl)methyl)-2-((2-isocyanoquinolin-6-yl)methyl)isonicotinamide [Example 130]” here?
A: Its IC50 is under 100 nM.
